Reference: patent publication US20260297070A1, “CYCLIC [COMPOUND LEFT OUT] WRN INHIBITORS” (Nimbus Wadjet, Inc., priority 2023, published 2026)

Molecular target: T1, human Werner helicase (WRN-BV08, Uniprot Q14191, amino acids 517-1235 with L1074F point mutation) (Homo sapiens, UniProt Q14191, L1074F)
T1 construct: Uniprot Q14191, amino acids 517-1235 with L1074F point mutation; TEV-cleavable 8×His (C, cleaved yes); made in house; host or cells: Sf9 insect cells (baculovirus)
Assay: WRN (BV08) ADP-Glo Assay
Assay type: biochemical
Conditions: 0.15 nM WRN, 5 μM ATP, 0.1 nM DNA duplex, 15 min preincubation, 60 min at 25° C., pH 7.5, 1% DMSO; read-out: ADP-Glo_hWRN_IC50
How it was run: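 Untagged WRN (Sf9-expressed, TEV-cleaved) at 0.15 nM was preincubated 15 min at 25 °C with compound, then reacted 60 min at 25 °C with 5 μM ATP and 0.1 nM DNA duplex in Bicine pH 7.5, 1 mM MgCl2. ADP-Glo luminescence gave % inhibition; IC50 by four-parameter fit.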

T1 sequence (Q14191 with tags, fused parts or gaps L1074F limits assumed): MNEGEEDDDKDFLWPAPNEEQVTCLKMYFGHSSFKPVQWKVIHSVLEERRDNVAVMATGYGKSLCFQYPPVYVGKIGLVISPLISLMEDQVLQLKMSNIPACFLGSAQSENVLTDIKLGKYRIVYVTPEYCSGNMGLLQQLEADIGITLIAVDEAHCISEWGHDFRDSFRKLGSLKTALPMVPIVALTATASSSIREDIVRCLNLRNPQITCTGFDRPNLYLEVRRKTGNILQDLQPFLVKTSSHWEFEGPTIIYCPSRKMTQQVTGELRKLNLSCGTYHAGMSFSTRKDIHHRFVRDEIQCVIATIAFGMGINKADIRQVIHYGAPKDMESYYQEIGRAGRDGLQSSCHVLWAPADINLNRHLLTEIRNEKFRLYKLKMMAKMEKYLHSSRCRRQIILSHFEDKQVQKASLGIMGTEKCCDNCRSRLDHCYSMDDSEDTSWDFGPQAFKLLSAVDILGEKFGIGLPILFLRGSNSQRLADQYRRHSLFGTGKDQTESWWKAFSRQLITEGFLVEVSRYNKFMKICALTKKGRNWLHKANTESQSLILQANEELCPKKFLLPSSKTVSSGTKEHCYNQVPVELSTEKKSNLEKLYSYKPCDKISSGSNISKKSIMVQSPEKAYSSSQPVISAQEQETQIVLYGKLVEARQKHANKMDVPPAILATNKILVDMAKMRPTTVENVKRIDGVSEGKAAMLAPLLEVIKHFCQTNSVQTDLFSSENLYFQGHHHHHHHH

SMILES	IC50 [µM]
O=C(Cc1ccc(-n2cccc2)cc1)N(Cc1cccc(F)c1)C1C=CS(=O)(=O)C1 (stereo not shown) [I-270, N-(1,1-dioxo-2,3-dihydro-1lambda6-thiophen-3-yl)-N-[(3-fluorophenyl)methyl]-2-[4-(1H-pyrrol-1-yl)phenyl]acetamide]	5 to 10
N#Cc1cccn1-c1ccc(CC(=O)N(Cc2ccncc2)C2C=CS(=O)(=O)C2)cc1 (stereo not shown) [I-272, 2-[4-(2-cyano-1H-pyrrol-1-yl)phenyl]-N-(1,1-dioxo-2,3-dihydro-1lambda6-thiophen-3-yl)-N-[(pyridin-4-yl)methyl]acetamide]	5 to 10
O=C(Cc1ccc(C2CC2(F)F)cc1)N(Cc1ccncc1)C1C=CS(=O)(=O)C1 (stereo not shown) [I-273, 2-[4-(2,2-difluorocyclopropyl)phenyl]-N-(1,1-dioxo-2,3-dihydro-1lambda6-thiophen-3-yl)-N-[(pyridin-4-yl)methyl]acetamide]	5 to 10
Cc1cnc(CN(C(=O)Cc2ccc(-n3cccc3)cc2)C2C=CS(=O)(=O)C2)s1 (stereo not shown) [I-274, N-(1,1-dioxo-2,3-dihydro-1lambda6-thiophen-3-yl)-N-[(5-methyl-1,3-thiazol-2-yl)methyl]-2-[4-(1H-pyrrol-1-yl)phenyl]acetamide]	5 to 10
O=C(O)c1ccc(CN(C(=O)Cc2ccc(-n3cccc3)cc2)C2C=CS(=O)(=O)C2)cc1 (stereo not shown) [I-275, 4-{[N-(1,1-dioxo-2,3-dihydro-1lambda6-thiophen-3-yl)-2-[4-(1H-pyrrol-1-yl)phenyl]acetamido]methyl}benzoic acid]	10 to 50
O=C(Cc1ccc(-n2cccc2)cc1)N(Cc1nccs1)C1C=CS(=O)(=O)C1 (stereo not shown) [I-276, N-(1,1-dioxo-2,3-dihydro-1lambda6-thiophen-3-yl)-2-[4-(1H-pyrrol-1-yl)phenyl]-N-[(1,3-thiazol-2-yl)methyl]acetamide]	5 to 10
Cc1ccc(-c2ccc(C(C(=O)N(C)C)C(=O)N(Cc3ccncc3)C3C=CS(=O)(=O)C3)cc2)cc1 (stereo not shown) [I-277, N-(1,1-dioxo-2,3-dihydro-1lambda6-thiophen-3-yl)-N′,N′-dimethyl-2-{4′-methyl-[1,1′-biphenyl]-4-yl}-N-[(pyridin-4-yl)methyl]propanediamide]	5 to 10
O=C(Cc1ccc(-n2cccc2)cc1)N(Cc1cc(F)ccc1F)C1C=CS(=O)(=O)C1 (stereo not shown) [I-278, N-[(2,5-difluorophenyl)methyl]-N-(1,1-dioxo-2,3-dihydro-1lambda6-thiophen-3-yl)-2-[4-(1H-pyrrol-1-yl)phenyl]acetamide]	10 to 50
O=C(Cc1ncc(-n2cccc2)s1)N(Cc1ccncc1)C1C=CS(=O)(=O)C1 (stereo not shown) [I-279, N-(1,1-dioxo-2,3-dihydro-1lambda6-thiophen-3-yl)-N-[(pyridin-4-yl)methyl]-2-[5-(1H-pyrrol-1-yl)-1,3-thiazol-2-yl]acetamide]	5 to 10
COc1ccc(CN(C(=O)Cc2ccc(-n3cccc3)cc2)C2C=CS(=O)(=O)C2)cc1OC (stereo not shown) [I-280, N-[(3,4-dimethoxyphenyl)methyl]-N-(1,1-dioxo-2,3-dihydro-1lambda6-thiophen-3-yl)-2-[4-(1H-pyrrol-1-yl)phenyl]acetamide]	10 to 50
CC(C)Cc1ccc(CC(=O)N(Cc2ccncc2)C2C=CS(=O)(=O)C2)cc1 (stereo not shown) [I-283, N-(1,1-dioxo-2,3-dihydro-1lambda6-thiophen-3-yl)-2-[4-(2-methylpropyl)phenyl]-N-[(pyridin-4-yl)methyl]acetamide]	10 to 50
CS(=O)(=O)Nc1ccc(CN(C(=O)Cc2ccc(-n3cccc3)cc2)C2C=CS(=O)(=O)C2)cc1 (stereo not shown) [I-284, N-(1,1-dioxo-2,3-dihydro-1lambda6-thiophen-3-yl)-N-[(4-methanesulfonamidophenyl)methyl]-2-[4-(1H-pyrrol-1-yl)phenyl]acetamide]	10 to 50
O=C(Cc1ccc(-n2cccc2)cc1)N(Cc1ccc(C2CC2)cn1)C1C=CS(=O)(=O)C1 (stereo not shown) [I-285, N-[(5-cyclopropylpyridin-2-yl)methyl]-N-(1,1-dioxo-2,3-dihydro-1lambda6-thiophen-3-yl)-2-[4-(1H-pyrrol-1-yl)phenyl]acetamide]	5 to 10
